Measured values reported in ChEMBL document CHEMBL1201862, “PubChem BioAssay data set” (2004).
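Five compound concentrations were applied to cells in 96-well plates for 48 hours; endpoints were derived by simple linear interpolation of the resulting dose-response curve. GI50 marks 50% less growth.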 The source made the active and inactive calls. Cut-off read from the data, not from the text of the source: active = GI50 up to about 1.1 µM and inactive = higher.

How the values were obtained:
Assay in all cases: NCI anticancer screen, dose series, 48 h
OVCAR-4 = tested on: OVCAR-4
M14 = tested on: M14
SK-OV-3 = tested on: SK-OV-3
LOX IMVI = tested on: LOX IMVI
SN12C = tested on: SN12C
KM12 = tested on: KM12
SK-MEL-28 = tested on: SK-MEL-28
SK-MEL-5 = tested on: SK-MEL-5
U-251 = tested on: U-251
COLO 205 = tested on: COLO 205
NCI-H23 = tested on: NCI-H23
HT-29 = tested on: HT-29
NCI/ADR-RES = tested on: NCI/ADR-RES
RPMI-8226 = tested on: RPMI-8226
UO-31 = tested on: UO-31
M19-MEL = tested on: M19-MEL
HCC 2998 = tested on: HCC 2998
KM-20L2 = tested on: KM-20L2
HOP-18 = tested on: HOP-18
SNB-78 = tested on: SNB-78

Structure (SMILES): COC(=O)C1=C(OC(=O)/C(=C/c2ccc(Cl)cc2)c2ccc(Cl)cc2)C(C(=O)OC)[C@]2(O)[C@@H](C(=O)OC)[C@H]1C[C@@H](c1ccccc1)[C@@H]2C(=O)OC (stereo partly specified)
- GI50 (OVCAR-4): > 100 µM (inactive)
- GI50 (M14): 30.1 µM (inactive)
- GI50 (SK-OV-3): 64 µM (inactive)
- GI50 (LOX IMVI): > 100 µM (inactive)
- GI50 (SN12C): > 100 µM (inactive)
- GI50 (KM12): > 100 µM (inactive)
- GI50 (SK-MEL-28): > 100 µM (inactive)
- GI50 (SK-MEL-5): > 100 µM (inactive)
- GI50 (U-251): 26.5 µM (inactive)
- GI50 (COLO 205): > 100 µM (inactive)
- GI50 (NCI-H23): > 100 µM (inactive)
- GI50 (HT-29): > 100 µM (inactive)
- GI50 (NCI/ADR-RES): > 100 µM (inactive)

Structure (SMILES): C/C=C/c1cc(=O)c([C@@H]2OC(=O)c3cc(OC)cc(OC)c32)co1 [VERMISTATIN]
- GI50 (OVCAR-4): 54.3 µM (inactive)
- GI50 (M14): 58.7 µM (inactive)
- GI50 (RPMI-8226): 35.4 µM (inactive)
- GI50 (UO-31): 24.4 µM (inactive)
- GI50 (M19-MEL): 35.1 µM (inactive)
- GI50 (KM12): 31.6 µM (inactive)
- GI50 (SK-MEL-28): 25.3 µM (inactive)
- GI50 (HCC 2998): 26 µM (inactive)
- GI50 (SK-MEL-5): 50.5 µM (inactive)
- GI50 (COLO 205): 22 µM (inactive)
- GI50 (KM-20L2): 67.5 µM (inactive)
- GI50 (NCI-H23): 29.6 µM (inactive)
- GI50 (HT-29): 34.6 µM (inactive)

Structure (SMILES): O=C1C=CC[C@H]2O[C@@H](COC(=O)Cc3ccccc3)C[C@H]2O1
- GI50 (OVCAR-4): 24 µM (inactive)
- GI50 (M14): 31.7 µM (inactive)
- GI50 (RPMI-8226): 28.8 µM (inactive)
- GI50 (UO-31): 32 µM (inactive)
- GI50 (SK-OV-3): > 100 µM (inactive)
- GI50 (SN12C): 66.1 µM (inactive)
- GI50 (KM12): 18.2 µM (inactive)
- GI50 (SK-MEL-28): 21.9 µM (inactive)
- GI50 (SK-MEL-5): 49.7 µM (inactive)
- GI50 (U-251): > 10 µM (inactive)
- GI50 (COLO 205): 47.5 µM (inactive)
- GI50 (NCI-H23): 20.9 µM (inactive)
- GI50 (HT-29): 25.5 µM (inactive)
- GI50 (NCI/ADR-RES): 38 µM (inactive)

Structure (SMILES): O=C1c2cccc3c2C(=O)c2c(cccc21)OCCOCCOCCOCCO3
- GI50 (HOP-18): > 100 µM (inactive)
- GI50 (OVCAR-4): 74.6 µM (inactive)
- GI50 (M14): > 100 µM (inactive)
- GI50 (RPMI-8226): 55.2 µM (inactive)
- GI50 (UO-31): 30.9 µM (inactive)
- GI50 (M19-MEL): > 100 µM (inactive)
- GI50 (SK-OV-3): > 100 µM (inactive)
- GI50 (SNB-78): > 100 µM (inactive)
- GI50 (LOX IMVI): 78.2 µM (inactive)
- GI50 (SN12C): > 100 µM (inactive)
- GI50 (HCC 2998): > 100 µM (inactive)
- GI50 (SK-MEL-5): 75.7 µM (inactive)
- GI50 (U-251): > 100 µM (inactive)
- GI50 (KM-20L2): > 100 µM (inactive)
- GI50 (NCI-H23): > 100 µM (inactive)
- GI50 (HT-29): > 100 µM (inactive)

Structure (SMILES): CC1SC(c2ccccc2)N(Nc2c3ccccc3nc3ccccc23)C1=O (stereo unspecified)
- GI50 (OVCAR-4): > 100 µM (inactive)
- GI50 (M14): > 100 µM (inactive)
- GI50 (RPMI-8226): 58.7 µM (inactive)
- GI50 (UO-31): 20.4 µM (inactive)
- GI50 (M19-MEL): > 100 µM (inactive)
- GI50 (SK-OV-3): 28.4 µM (inactive)
- GI50 (SNB-78): > 100 µM (inactive)
- GI50 (LOX IMVI): 89.1 µM (inactive)
- GI50 (SN12C): > 100 µM (inactive)
- GI50 (KM12): 71.4 µM (inactive)
- GI50 (SK-MEL-28): > 100 µM (inactive)
- GI50 (HCC 2998): > 100 µM (inactive)
- GI50 (SK-MEL-5): 38.4 µM (inactive)
- GI50 (U-251): > 100 µM (inactive)
- GI50 (COLO 205): > 100 µM (inactive)
- GI50 (KM-20L2): > 100 µM (inactive)
- GI50 (NCI-H23): 50.4 µM (inactive)
- GI50 (HT-29): > 100 µM (inactive)

Structure (SMILES): CC(C)=CCc1c(O)ccc2c1OC1c3ccc(O)c(CC=C(C)C)c3OCC21 (stereo unspecified)
- GI50 (HOP-18): 17.6 µM (inactive)
- GI50 (OVCAR-4): 11.2 µM (inactive)
- GI50 (RPMI-8226): 3.28 µM (inactive)
- GI50 (UO-31): 11.7 µM (inactive)
- GI50 (M19-MEL): 11.4 µM (inactive)
- GI50 (SK-OV-3): 19.2 µM (inactive)
- GI50 (SNB-78): 12.1 µM (inactive)
- GI50 (LOX IMVI): 6.81 µM (inactive)
- GI50 (SN12C): 14 µM (inactive)
- GI50 (KM12): 10.2 µM (inactive)
- GI50 (SK-MEL-28): 13.4 µM (inactive)
- GI50 (HCC 2998): 13.2 µM (inactive)
- GI50 (SK-MEL-5): 5.98 µM (inactive)
- GI50 (U-251): 7.67 µM (inactive)
- GI50 (COLO 205): 17.3 µM (inactive)
- GI50 (KM-20L2): 18.7 µM (inactive)
- GI50 (NCI-H23): > 38.8 µM (inactive)
- GI50 (HT-29): > 44.4 µM (inactive)
- GI50 (NCI/ADR-RES): 8.09 µM (inactive)

Structure (SMILES): CCCCN1C=CN2c3nc4cc(C)c(C)cc4n3C(C(=O)OC)=C(C(=O)OC)C12 (stereo unspecified)
- GI50 (HOP-18): > 100 µM (inactive)
- GI50 (OVCAR-4): > 100 µM (inactive)
- GI50 (M14): > 100 µM (inactive)
- GI50 (RPMI-8226): > 100 µM (inactive)
- GI50 (UO-31): > 100 µM (inactive)
- GI50 (M19-MEL): > 100 µM (inactive)
- GI50 (SK-OV-3): > 100 µM (inactive)
- GI50 (SNB-78): > 100 µM (inactive)
- GI50 (LOX IMVI): > 100 µM (inactive)
- GI50 (SN12C): > 100 µM (inactive)
- GI50 (HCC 2998): > 100 µM (inactive)
- GI50 (SK-MEL-5): > 100 µM (inactive)
- GI50 (U-251): > 100 µM (inactive)
- GI50 (KM-20L2): > 100 µM (inactive)
- GI50 (NCI-H23): > 100 µM (inactive)
- GI50 (HT-29): > 100 µM (inactive)

Structure (SMILES): CC12CCC3C(CCC4(O)C=CCCC34C=O)C1(O)CC(O)C2c1ccc(=O)oc1 (stereo unspecified)
- GI50 (HOP-18): 0.0679 µM (active)
- GI50 (OVCAR-4): 0.0611 µM (active)
- GI50 (RPMI-8226): 0.0697 µM (active)
- GI50 (UO-31): 0.0685 µM (active)
- GI50 (M19-MEL): 0.0851 µM (active)
- GI50 (SK-OV-3): 0.109 µM (active)
- GI50 (SNB-78): 0.0593 µM (active)
- GI50 (LOX IMVI): 0.0662 µM (active)
- GI50 (SN12C): 0.0519 µM (active)
- GI50 (KM12): 0.0792 µM (active)
- GI50 (SK-MEL-28): 0.134 µM (active)
- GI50 (HCC 2998): 0.117 µM (active)
- GI50 (SK-MEL-5): 0.0565 µM (active)
- GI50 (U-251): 0.08 µM (active)
- GI50 (COLO 205): 0.113 µM (active)
- GI50 (KM-20L2): 0.0668 µM (active)
- GI50 (NCI-H23): 0.0512 µM (active)
- GI50 (HT-29): 0.117 µM (active)
- GI50 (NCI/ADR-RES): 0.0679 µM (active)

Structure (SMILES): Cc1c(C2=NN=C(/N=N/c3c(O)cccc3O)/C2=C/c2ccccc2)c(=O)n(-c2ccccc2)n1C
- GI50 (HOP-18): > 100 µM (inactive)
- GI50 (OVCAR-4): > 100 µM (inactive)
- GI50 (RPMI-8226): > 100 µM (inactive)
- GI50 (UO-31): > 100 µM (inactive)
- GI50 (M19-MEL): > 100 µM (inactive)
- GI50 (SK-OV-3): > 100 µM (inactive)
- GI50 (SNB-78): > 100 µM (inactive)
- GI50 (LOX IMVI): > 100 µM (inactive)
- GI50 (SN12C): > 100 µM (inactive)
- GI50 (KM12): > 100 µM (inactive)
- GI50 (SK-MEL-28): > 100 µM (inactive)
- GI50 (HCC 2998): > 100 µM (inactive)
- GI50 (SK-MEL-5): > 100 µM (inactive)
- GI50 (U-251): > 100 µM (inactive)
- GI50 (COLO 205): > 100 µM (inactive)
- GI50 (KM-20L2): > 100 µM (inactive)
- GI50 (NCI-H23): > 100 µM (inactive)
- GI50 (HT-29): > 100 µM (inactive)
- GI50 (NCI/ADR-RES): > 100 µM (inactive)

Structure (SMILES): O=C(O)CCC(NC(=O)c1ccc(Nc2cnc3cc(C(F)(F)F)ccc3n2)cc1)C(=O)O (stereo unspecified)
- GI50 (HOP-18): > 100 µM (inactive)
- GI50 (OVCAR-4): > 100 µM (inactive)
- GI50 (RPMI-8226): > 100 µM (inactive)
- GI50 (UO-31): > 100 µM (inactive)
- GI50 (SK-OV-3): > 100 µM (inactive)
- GI50 (SNB-78): > 100 µM (inactive)
- GI50 (LOX IMVI): > 100 µM (inactive)
- GI50 (SN12C): > 100 µM (inactive)
- GI50 (KM12): > 100 µM (inactive)
- GI50 (SK-MEL-28): > 100 µM (inactive)
- GI50 (HCC 2998): > 100 µM (inactive)
- GI50 (SK-MEL-5): > 100 µM (inactive)
- GI50 (U-251): > 100 µM (inactive)
- GI50 (COLO 205): > 100 µM (inactive)
- GI50 (KM-20L2): > 100 µM (inactive)
- GI50 (NCI-H23): > 100 µM (inactive)
- GI50 (HT-29): > 100 µM (inactive)
- GI50 (NCI/ADR-RES): > 100 µM (inactive)

Structure (SMILES): COc1cc(/C=C(\C#N)C(N)=O)cc(Br)c1O
- GI50 (HOP-18): > 100 µM (inactive)
- GI50 (OVCAR-4): > 100 µM (inactive)
- GI50 (RPMI-8226): 70 µM (inactive)
- GI50 (UO-31): 96.6 µM (inactive)
- GI50 (M19-MEL): > 100 µM (inactive)
- GI50 (SK-OV-3): > 100 µM (inactive)
- GI50 (SNB-78): > 100 µM (inactive)
- GI50 (LOX IMVI): 29.7 µM (inactive)
- GI50 (KM12): > 100 µM (inactive)
- GI50 (SK-MEL-28): > 100 µM (inactive)
- GI50 (HCC 2998): > 100 µM (inactive)
- GI50 (SK-MEL-5): > 100 µM (inactive)
- GI50 (U-251): > 100 µM (inactive)
- GI50 (KM-20L2): > 100 µM (inactive)
- GI50 (HT-29): > 100 µM (inactive)
- GI50 (NCI/ADR-RES): > 100 µM (inactive)
